Source: ChEMBL document CHEMBL1275261, “Nationwide investigation of extended-spectrum beta-lactamases, metallo-beta-lactamases, and extended-spectrum oxacillinases produced by ceftazidime-resistant Pseudomonas aeruginosa strains in France” (2010)
Values after ≈ are worked out from the molar mass of the structure shown.

Columns and labels:
Assay type in all cases: functional
Pseudomonas aeruginosa [1] = assay: Antibacterial activity against SHV-2a producing Pseudomonas aeruginosa isolate P102 exhibiting PFGE H pattern by 2-fold agar dilution method
Pseudomonas aeruginosa [2] = assay: Antibacterial activity against SHV-2a producing Pseudomonas aeruginosa isolate P60 exhibiting PFGE H pattern by 2-fold agar dilution method
Pseudomonas aeruginosa [3] = assay: Antibacterial activity against PER-1 producing Pseudomonas aeruginosa isolate P170 exhibiting PFGE G pattern by 2-fold agar dilution method
Pseudomonas aeruginosa [4] = assay: Antibacterial activity against OXA-10, PSE-1, VIM-2 and PER-1 producing Pseudomonas aeruginosa isolate P22 exhibiting PFGE F pattern by 2-fold agar dilution method
Pseudomonas aeruginosa [5] = assay: Antibacterial activity against OXA-30, PSE-1, VIM-2 and PER-1 producing Pseudomonas aeruginosa isolate P19 exhibiting PFGE F pattern by 2-fold agar dilution method
Pseudomonas aeruginosa [6] = assay: Antibacterial activity against OXA-28 producing Pseudomonas aeruginosa isolate P174 exhibiting PFGE E pattern by 2-fold agar dilution method
Pseudomonas aeruginosa [7] = assay: Antibacterial activity against OXA-2 and OXA-19 producing Pseudomonas aeruginosa isolate P66 exhibiting PFGE C pattern by 2-fold agar dilution method
Pseudomonas aeruginosa [8] = assay: Antibacterial activity against OXA-19 producing Pseudomonas aeruginosa isolate P9 exhibiting PFGE A pattern by 2-fold agar dilution method
Pseudomonas aeruginosa [9] = assay: Antibacterial activity against IMP-18 producing Pseudomonas aeruginosa isolate P85 exhibiting PFGE K pattern by 2-fold agar dilution method
Pseudomonas aeruginosa [10] = assay: Antibacterial activity against VIM-2 producing Pseudomonas aeruginosa isolate P67 exhibiting PFGE J pattern by 2-fold agar dilution method
Pseudomonas aeruginosa [11] = assay: Antibacterial activity against VEB-1a and OXA-10 producing Pseudomonas aeruginosa isolate P151 exhibiting PFGE I pattern by 2-fold agar dilution method
Pseudomonas aeruginosa [12] = assay: Antibacterial activity against OXA-19 producing Pseudomonas aeruginosa isolate P122 exhibiting PFGE A pattern by 2-fold agar dilution method
Pseudomonas aeruginosa [13] = assay: Antibacterial activity against OXA-19 producing Pseudomonas aeruginosa isolate P11 exhibiting PFGE A pattern by 2-fold agar dilution method
Pseudomonas aeruginosa [14] = assay: Antibacterial activity against SHV-2a producing Pseudomonas aeruginosa isolate P102 exhibiting PFGE H pattern by 2-fold agar dilution method in presence of 4 ug/ml Tazobactam
Pseudomonas aeruginosa [15] = assay: Antibacterial activity against VEB-1a and OXA-10 producing Pseudomonas aeruginosa isolate P151 exhibiting PFGE I pattern by 2-fold agar dilution method in presence of 4 ug/ml Tazobactam
Pseudomonas aeruginosa [16] = assay: Antibacterial activity against VIM-2 producing Pseudomonas aeruginosa isolate P67 exhibiting PFGE J pattern by 2-fold agar dilution method in presence of 4 ug/ml Tazobactam
Pseudomonas aeruginosa [17] = assay: Antibacterial activity against IMP-18 producing Pseudomonas aeruginosa isolate P85 exhibiting PFGE K pattern by 2-fold agar dilution method in presence of 4 ug/ml Tazobactam
Pseudomonas aeruginosa [18] = assay: Antibacterial activity against SHV-2a producing Pseudomonas aeruginosa isolate P60 exhibiting PFGE H pattern by 2-fold agar dilution method in presence of 4 ug/ml Tazobactam
Pseudomonas aeruginosa [19] = assay: Antibacterial activity against PER-1 producing Pseudomonas aeruginosa isolate P170 exhibiting PFGE G pattern by 2-fold agar dilution method in presence of 4 ug/ml Tazobactam
Pseudomonas aeruginosa [20] = assay: Antibacterial activity against OXA-10, PSE-1, VIM-2 and PER-1 producing Pseudomonas aeruginosa isolate P22 exhibiting PFGE F pattern by 2-fold agar dilution method in presence of 4 ug/ml Tazobactam
Pseudomonas aeruginosa [21] = assay: Antibacterial activity against OXA-30, PSE-1, VIM-2 and PER-1 producing Pseudomonas aeruginosa isolate P19 exhibiting PFGE F pattern by 2-fold agar dilution method in presence of 4 ug/ml Tazobactam
Pseudomonas aeruginosa [22] = assay: Antibacterial activity against OXA-28 producing Pseudomonas aeruginosa isolate P174 exhibiting PFGE E pattern by 2-fold agar dilution method in presence of 4 ug/ml Tazobactam
Pseudomonas aeruginosa [23] = assay: Antibacterial activity against OXA-2 and OXA-19 producing Pseudomonas aeruginosa isolate P66 exhibiting PFGE C pattern by 2-fold agar dilution method in presence of 4 ug/ml Tazobactam
Pseudomonas aeruginosa [24] = assay: Antibacterial activity against OXA-19 producing Pseudomonas aeruginosa isolate P122 exhibiting PFGE A pattern by 2-fold agar dilution method in presence of 4 ug/ml Tazobactam
Pseudomonas aeruginosa [25] = assay: Antibacterial activity against OXA-19 producing Pseudomonas aeruginosa isolate P11 exhibiting PFGE A pattern by 2-fold agar dilution method in presence of 4 ug/ml Tazobactam
Pseudomonas aeruginosa [26] = assay: Antibacterial activity against OXA-19 producing Pseudomonas aeruginosa isolate P9 exhibiting PFGE A pattern by 2-fold agar dilution method in presence of 4 ug/ml Tazobactam

With CO/N=C(\C(=O)N[C@@H]1C(=O)N2C(C(=O)[O-])=C(C[N+]3(C)CCCC3)CS[C@H]12)c1csc(N)n1 the MIC (Pseudomonas aeruginosa [1]) was 64 µg/mL (≈ 133 µM), the MIC (Pseudomonas aeruginosa [2]) was 64 µg/mL (≈ 133 µM) and the MIC (Pseudomonas aeruginosa [3]) was 64 µg/mL (≈ 133 µM). For the same compound, the MIC (Pseudomonas aeruginosa [4]) was 128 µg/mL (≈ 266 µM), the MIC (Pseudomonas aeruginosa [5]) was 128 µg/mL (≈ 266 µM) and the MIC (Pseudomonas aeruginosa [6]) was 32 µg/mL (≈ 66.6 µM). It also gave an MIC (Pseudomonas aeruginosa [7]) of 16 µg/mL (≈ 33.3 µM), an MIC (Pseudomonas aeruginosa [8]) of 64 µg/mL (≈ 133 µM) and an MIC (Pseudomonas aeruginosa [9]) of 256 µg/mL (≈ 533 µM). It also gave an MIC (Pseudomonas aeruginosa [10]) of 64 µg/mL (≈ 133 µM) and an MIC (Pseudomonas aeruginosa [11]) greater than 512 µg/mL.

In the case of NCC[C@H](O)C(=O)N[C@@H]1C[C@H](N)[C@@H](O[C@H]2O[C@H](CN)[C@@H](O)[C@H](O)[C@H]2O)[C@H](O)[C@H]1O[C@H]1O[C@H](CO)[C@@H](O)[C@H](N)[C@H]1O [AMIKACIN], the MIC (Pseudomonas aeruginosa [1]) is reported as 128 µg/mL (≈ 219 µM), the MIC (Pseudomonas aeruginosa [2]) is reported as 32 µg/mL (≈ 54.6 µM) and the MIC (Pseudomonas aeruginosa [3]) is reported as 32 µg/mL (≈ 54.6 µM). For the same compound, the MIC (Pseudomonas aeruginosa [4]) was 64 µg/mL (≈ 109 µM), the MIC (Pseudomonas aeruginosa [5]) was 64 µg/mL (≈ 109 µM) and the MIC (Pseudomonas aeruginosa [6]) was 16 µg/mL (≈ 27.3 µM). For the same compound, the MIC (Pseudomonas aeruginosa [7]) was 128 µg/mL (≈ 219 µM), the MIC (Pseudomonas aeruginosa [12]) was 8 µg/mL (≈ 13.7 µM) and the MIC (Pseudomonas aeruginosa [13]) was 8 µg/mL (≈ 13.7 µM). It also gave an MIC (Pseudomonas aeruginosa [8]) of 16 µg/mL (≈ 27.3 µM), an MIC (Pseudomonas aeruginosa [9]) greater than 512 µg/mL and an MIC (Pseudomonas aeruginosa [10]) of 32 µg/mL (≈ 54.6 µM). The MIC (Pseudomonas aeruginosa [11]) was 128 µg/mL (≈ 219 µM).

CC1(C)S[C@@H]2[C@H](NC(=O)[C@H](C(=O)O)c3ccsc3)C(=O)N2[C@H]1C(=O)O [TICARCILLIN] showed an MIC (Pseudomonas aeruginosa [1]) greater than 512 µg/mL, an MIC (Pseudomonas aeruginosa [2]) greater than 512 µg/mL and an MIC (Pseudomonas aeruginosa [3]) of 512 µg/mL (≈ 1330 µM). For the same compound, the MIC (Pseudomonas aeruginosa [4]) was greater than 512 µg/mL, the MIC (Pseudomonas aeruginosa [5]) was greater than 512 µg/mL and the MIC (Pseudomonas aeruginosa [6]) was 128 µg/mL (≈ 333 µM). It also gave an MIC (Pseudomonas aeruginosa [7]) of 512 µg/mL (≈ 1330 µM), an MIC (Pseudomonas aeruginosa [12]) of 256 µg/mL (≈ 666 µM) and an MIC (Pseudomonas aeruginosa [13]) of 256 µg/mL (≈ 666 µM). It also gave an MIC (Pseudomonas aeruginosa [8]) of 512 µg/mL (≈ 1330 µM), an MIC (Pseudomonas aeruginosa [9]) greater than 512 µg/mL and an MIC (Pseudomonas aeruginosa [10]) greater than 512 µg/mL. For the same compound, the MIC (Pseudomonas aeruginosa [11]) was greater than 512 µg/mL.

With O=C(O)c1cn(C2CC2)c2cc(N3CCNCC3)c(F)cc2c1=O [CIPROFLOXACIN] the MIC (Pseudomonas aeruginosa [1]) was 32 µg/mL (≈ 96.6 µM), the MIC (Pseudomonas aeruginosa [2]) was 32 µg/mL (≈ 96.6 µM) and the MIC (Pseudomonas aeruginosa [3]) was 64 µg/mL (≈ 193 µM). The MIC (Pseudomonas aeruginosa [6]) was 128 µg/mL (≈ 386 µM), the MIC (Pseudomonas aeruginosa [7]) was 128 µg/mL (≈ 386 µM) and the MIC (Pseudomonas aeruginosa [12]) was 64 µg/mL (≈ 193 µM). It also gave an MIC (Pseudomonas aeruginosa [13]) of 32 µg/mL (≈ 96.6 µM), an MIC (Pseudomonas aeruginosa [8]) of 64 µg/mL (≈ 193 µM) and an MIC (Pseudomonas aeruginosa [9]) of 128 µg/mL (≈ 386 µM). For the same compound, the MIC (Pseudomonas aeruginosa [10]) was 128 µg/mL (≈ 386 µM) and the MIC (Pseudomonas aeruginosa [11]) was 512 µg/mL (≈ 1550 µM).

In the case of CCN1CCN(C(=O)N[C@@H](C(=O)N[C@@H]2C(=O)N3[C@@H]2SC(C)(C)[C@@H]3C(=O)O)c2ccccc2)C(=O)C1=O [PIPERACILLIN], the MIC (Pseudomonas aeruginosa [14]) is reported as 128 µg/mL, the MIC (Pseudomonas aeruginosa [15]) is reported as 256 µg/mL and the MIC (Pseudomonas aeruginosa [16]) is reported as 32 µg/mL. For the same compound, the MIC (Pseudomonas aeruginosa [17]) was 128 µg/mL, the MIC (Pseudomonas aeruginosa [18]) was 128 µg/mL and the MIC (Pseudomonas aeruginosa [19]) was 128 µg/mL. It also gave an MIC (Pseudomonas aeruginosa [20]) of 256 µg/mL, an MIC (Pseudomonas aeruginosa [21]) of 256 µg/mL and an MIC (Pseudomonas aeruginosa [22]) of 128 µg/mL. The MIC (Pseudomonas aeruginosa [23]) was 32 µg/mL, the MIC (Pseudomonas aeruginosa [24]) was 64 µg/mL and the MIC (Pseudomonas aeruginosa [25]) was 64 µg/mL. The MIC (Pseudomonas aeruginosa [26]) was 128 µg/mL.

Work on CC(C)(O/N=C(\C(=O)N[C@@H]1C(=O)N2C(C(=O)[O-])=C(C[n+]3ccccc3)CS[C@H]12)c1csc(N)n1)C(=O)O [CEFTAZIDIME] yielded an MIC (Pseudomonas aeruginosa [1]) of 64 µg/mL (≈ 117 µM), an MIC (Pseudomonas aeruginosa [2]) of 64 µg/mL (≈ 117 µM) and an MIC (Pseudomonas aeruginosa [3]) of 256 µg/mL (≈ 468 µM). The MIC (Pseudomonas aeruginosa [4]) was 256 µg/mL (≈ 468 µM), the MIC (Pseudomonas aeruginosa [5]) was 256 µg/mL (≈ 468 µM) and the MIC (Pseudomonas aeruginosa [6]) was 256 µg/mL (≈ 468 µM). For the same compound, the MIC (Pseudomonas aeruginosa [7]) was 64 µg/mL (≈ 117 µM), the MIC (Pseudomonas aeruginosa [12]) was 256 µg/mL (≈ 468 µM) and the MIC (Pseudomonas aeruginosa [13]) was 256 µg/mL (≈ 468 µM). The MIC (Pseudomonas aeruginosa [8]) was 256 µg/mL (≈ 468 µM), the MIC (Pseudomonas aeruginosa [9]) was greater than 512 µg/mL and the MIC (Pseudomonas aeruginosa [10]) was 128 µg/mL (≈ 234 µM). The MIC (Pseudomonas aeruginosa [11]) was greater than 512 µg/mL.

With C[C@@H](O)[C@H]1C(=O)N2C(C(=O)O)=C(SCCNC=N)C[C@H]12 [IMIPENEM ANHYDROUS] the MIC (Pseudomonas aeruginosa [1]) was 16 µg/mL (≈ 53.4 µM), the MIC (Pseudomonas aeruginosa [2]) was 1 µg/mL (≈ 3.34 µM) and the MIC (Pseudomonas aeruginosa [3]) was 4 µg/mL (≈ 13.4 µM). It also gave an MIC (Pseudomonas aeruginosa [4]) of 128 µg/mL (≈ 428 µM), an MIC (Pseudomonas aeruginosa [5]) of 128 µg/mL (≈ 428 µM) and an MIC (Pseudomonas aeruginosa [6]) of 4 µg/mL (≈ 13.4 µM). For the same compound, the MIC (Pseudomonas aeruginosa [7]) was 1 µg/mL (≈ 3.34 µM), the MIC (Pseudomonas aeruginosa [12]) was 8 µg/mL (≈ 26.7 µM) and the MIC (Pseudomonas aeruginosa [13]) was 8 µg/mL (≈ 26.7 µM). It also gave an MIC (Pseudomonas aeruginosa [8]) of 16 µg/mL (≈ 53.4 µM), an MIC (Pseudomonas aeruginosa [9]) of 64 µg/mL (≈ 214 µM) and an MIC (Pseudomonas aeruginosa [10]) of 512 µg/mL (≈ 1710 µM). For the same compound, the MIC (Pseudomonas aeruginosa [11]) was 32 µg/mL (≈ 107 µM).

In the case of C[C@H]1[C@H](NC(=O)/C(=N\OC(C)(C)C(=O)O)c2csc(N)n2)C(=O)N1S(=O)(=O)O [AZTREONAM], the MIC (Pseudomonas aeruginosa [1]) is reported as 32 µg/mL (≈ 73.5 µM), the MIC (Pseudomonas aeruginosa [2]) is reported as 32 µg/mL (≈ 73.5 µM) and the MIC (Pseudomonas aeruginosa [3]) is reported as 128 µg/mL (≈ 294 µM). The MIC (Pseudomonas aeruginosa [4]) was 256 µg/mL (≈ 588 µM), the MIC (Pseudomonas aeruginosa [5]) was 128 µg/mL (≈ 294 µM) and the MIC (Pseudomonas aeruginosa [6]) was 32 µg/mL (≈ 73.5 µM). For the same compound, the MIC (Pseudomonas aeruginosa [7]) was 16 µg/mL (≈ 36.7 µM), the MIC (Pseudomonas aeruginosa [8]) was 16 µg/mL (≈ 36.7 µM) and the MIC (Pseudomonas aeruginosa [9]) was 16 µg/mL (≈ 36.7 µM). The MIC (Pseudomonas aeruginosa [10]) was 32 µg/mL (≈ 73.5 µM) and the MIC (Pseudomonas aeruginosa [11]) was greater than 512 µg/mL.
